Measurements published in ChEMBL document CHEMBL4813936, “Cyclopeptides from the Mushroom Pathogen Fungus Cladobotryum varium” (J Nat Prod, 2021).
Active and inactive are the calls of the source. The rule behind the calls is not given here. Where a SMILES comes first, the peptide text is derived from it. [ ]: non-standard residue; d: D form. NMeF = CN[C@@H](Cc1ccccc1)C(=O)O; Hica(2S) = CC(C)C[C@H](O)C(=O)O; βAla = NCCC(=O)O

How the values were obtained:
Ralstonia solanacearum = experiment: Antibacterial activity against Ralstonia solanacearum assessed as reduction in microbial growth after 20 hrs by liquid microculture method; format: functional, organism-based
P388 = experiment: Cytotoxicity against mouse P388 cells measure after 72 hrs by XTT assay; format: functional, cell-based
[1] = tested on: Agrobacterium tumefaciens; experiment: Antibacterial activity against Rhizobium radiobacter NBRC14554 assessed as reduction in microbial growth after 20 hrs by liquid microculture method; format: functional, organism-based
Kocuria rhizophila = experiment: Antibacterial activity against Kocuria rhizophila ATCC9341 assessed as reduction in microbial growth after 20 hrs by liquid microculture method; format: functional, organism-based
HeLa [2] = experiment: Induction of autophagy in human HeLa cells expressing GFP-LC3 assessed as suppression of autolysosome formation at 10 nM measured after 24 hrs by fluorescence microscopic analysis; format: functional, cell-based
Candida albicans = experiment: Antifungal activity against Candida albicans NBRC0197 assessed as reduction in microbial growth after 20 hrs by liquid microculture method; format: functional, organism-based
HeLa [3] = experiment: Induction of autophagy in human HeLa cells expressing GFP-LC3 assessed as increase in punctate structures at 10 nM measured after 24 hrs by fluorescence microscopic analysis; format: functional, cell-based
Staphylococcus aureus = experiment: Antibacterial activity against Staphylococcus aureus FDA209P JC-1 assessed as reduction in microbial growth after 20 hrs by liquid microculture method; format: functional, organism-based
Trichophyton rubrum = experiment: Antifungal activity against Trichophyton rubrum NBRC5467 assessed as reduction in microbial growth after 20 hrs by liquid microculture method; format: functional, organism-based

Row | Compound | Activity (Ralstonia solanacearum) | Activity (P388) | Activity [1] | Activity (Kocuria rhizophila) | Activity (HeLa [2]) | Activity (Candida albicans) | Activity (HeLa [3]) | Activity (Staphylococcus aureus) | Activity (Trichophyton rubrum)
1 | CC[C@H](C)[C@@H]1NC(=O)[C@@H]2CCCN2C(=O)[C@H](CC(C)C)OC(=O)CCNC(=O)[C@H](Cc2ccccc2)N(C)C(=O)[C@H](Cc2ccccc2)N(C)C1=O (cyclo(I[NMeF][NMeF][βAla][Hica(2S)]P)) | inactive | inactive | inactive | inactive | Active | inactive | Active | inactive | inactive
2 | CC[C@H](C)[C@@H]1NC(=O)[C@H](CC(C)C)NC(=O)[C@H](Cc2ccccc2)NC(=O)[C@@H](Cc2ccccc2)NC(=O)[C@@H](Cc2ccccc2)NC1=O | inactive | inactive | inactive | inactive | inactive | inactive | inactive | inactive | inactive
3 | CC(C)C[C@@H]1OC(=O)CCNC(=O)[C@H](Cc2ccccc2)N(C)C(=O)[C@H](Cc2ccccc2)N(C)C(=O)[C@H](C(C)C)NC(=O)[C@@H]2CCCN2C1=O (cyclo([Hica(2S)]PV[NMeF][NMeF][βAla])) | inactive | inactive | inactive | inactive | inactive | inactive | inactive | inactive | inactive
